Measured values reported in patent US20020119891A1, “Integrated methods for control of aquatic weeds” (priority 2001, published 2002).
Where “and” joins values, the source holds several entries; their conditions need not be identical. Equal entries are not always repeated.

How the values were obtained:
Eurasian watermilfoil [1] = experiment: Field treatment of a lake with fluridone; type: in vivo
Text: (§1) Preferred methods of the present invention also involve plant biochemical testing conducted during the treatment. Thus, during the period in which a fluridone level is being maintained in the body of water under treatment, aquatic weed samples are obtained from the water body. This may involve, for example, collection of growing apical meristems from selected sites in the water body, preferably along with matched water samples from the same sites. Again, the sample sites can be logged using GPS or another suitable system to assist in future sampling and reference.
The aquatic weed plant samples can then be assessed to determine the effect of the maintained level of fluridone on the plants. To this end, the samples are first thoroughly washed and weighed. In a typical treatment, 6 to 12 samples per site will be collected. Similar to the discussions above, standard methods are then used to assay the level of pigments such as B-carotene, chlorophyll, and/or other relevant substances such as phytoene, in the tissue. […] The levels can be measured as discussed above using any suitable method such as spectrophotometry or fluorometry and appropriate standard curves. The measured values can then be utilized to determine whether any additional applications of fluridone or other adjustments are necessary to bring concentrations to levels that will be phytotoxic to the local aquatic weed population. […]

Eurasian watermilfoil [2] = experiment: Pretreatment aquatic weed bioassay: sampled plants exposed to fluridone, pigments assayed; type: in vivo
Text: (§2) As disclosed above, fluridone treatments of the invention are integrated with assays to determine the efficacy of fluridone on the local plant population in the body of water under treatment, and desirably also with assays to determine the concentration of fluridone existing during the treatment program. For example, in the present invention, an aquatic weed bioassay can be used to determine the pre-treatment susceptibility of a target plant population to fluridone. Such an assay may for instance involve the collection of meristematic stem tissue or vegetative propagules at selected sites within a body of water to be treated. The sites of collection may be logged, for instance using coordinates defined by the global positioning satellite (GPS) system. […]
(§3) At the completion of the growth period, all new growth from the plants can be excised from the original plant tissue. […] After the extraction, the extracted sample is assayed to quantitate the levels of pigments, for example chlorophyll and/or β-carotene. […] For example, spectrophotometric absorbance measurements for chlorophyll may be taken at 645 and/or 662 nm; for β-carotene may be taken at 445 nm; and for phytoene may be taken at 287 and/or 347 nm. These measured values may be compared to control data (e.g. including curves generated using samples of known concentration) to determine the level of these substances in the samples. […]

aquatic weeds = conditions: cited from earlier work
hydrilla [3] = experiment: Field treatment of a water body with plant biochemical and water residue monitoring; type: in vivo, Hydrilla verticillata
Text: as §1
The aquatic weed plant samples can then be assessed to determine the effect of the maintained level of fluridone on the plants. To this end, the samples are first thoroughly washed and weighed. In a typical treatment, 6 to 12 samples per site will be collected. Similar to the discussions above, standard methods are then used to assay the level of pigments such as B-carotene, chlorophyll, and/or other relevant substances such as phytoene, in the tissue. […] The levels can be measured as discussed above using any suitable method such as spectrophotometry or fluorometry and appropriate standard curves. The measured values can then be utilized to determine whether any additional applications of fluridone or other adjustments are necessary to bring concentrations to levels that will be phytotoxic to the local aquatic weed population.
The biochemical assays discussed above, taken during treatment, are preferably used in conjunction with assays of water samples simultaneously taken, to determine the concentration of fluridone in the water body. […] The combination of measured fluridone concentration along with measured effect on plant health provides a particularly powerful method for the management of aquatic weeds in water bodies.
The Spring Creek Arm of Lake Seminole (5000 acres) was treated in May 2000 using a drip system that added fluridone based on flow rates in the river. […] Plant response to the treatment was monitored and threshold water concentrations were determined. […]

hydrilla [4] = experiment: Pretreatment aquatic weed bioassay: apical tips grown in fluridone-treated medium, pigments of new growth assayed; type: in vivo, Hydrilla verticillata
Text: as §2, §3

1-methyl-3phenyl-5-3-(trifluoromethyl)phenyl-4(1H)-pyridinone [fluridone]
weed control result of field treatment (Eurasian watermilfoil [1]; Lake McKinney, Minnesota, treated late summer 1999, assessed end of following summer): could no longer be found in the lake
weed control result of previous field applications (Eurasian watermilfoil [1]; Wolverine Lake, two applications at 5 and 6 ppb in the last 3 years): unsatisfactory results
threshold concentration of fluridone (Eurasian watermilfoil [2]; Example 3: Eurasian watermilfoil from Wolverine Lake, Michigan, 0, 3, 6, 9, 12, 15 ppb): 6 ppb and 9 ppb
plant response below threshold (Eurasian watermilfoil [2]; Wolverine Lake Eurasian watermilfoil, 3 ppb): rapid recovery of the plants
susceptible concentration, less sensitive species (aquatic weeds; other species, only higher concentrations): 150 ppb
susceptible concentration, more sensitive species (aquatic weeds; some species, as low as): about 5 ppb
weed control result of earlier treatment (hydrilla [3]; Lake Eva, 1999 treatment): very poor control
lake concentration relative to control threshold (pigment assay) (hydrilla [3]; Lake Eva, Central Florida, treated April 2000, target rate 15 ppb): below thresholds required to provide control
plant response at downstream sites (plant sampling) (hydrilla [3]; Spring Creek Arm of Lake Seminole, drip system treatment, May 2000): lack of impact at several downstream sites
threshold concentration of fluridone (pigment concentrations in new growth) (hydrilla [4]; Example 1: hydrilla from 2500-acre Florida lake, 0, 3, 6, 12, 24 ppb, 12-day growth, no enhancement at 12 and 24 ppb): 6 ppb
lowest rate hydrilla is susceptible to (pretreatment assay) (hydrilla [4]; Spring Creek Arm of Lake Seminole hydrilla): 5 ppb
